Data from the supplement of paper PMC10307832.

Columns and labels:
Test in all cases: relative viability (nuclei count vs DMSO), 5 days (fraction); higher = more cells survive
EHT 1864 + AZD7762 = compound: C1COCCN1CC2=CC(=O)C(=CO2)OCCCCCSC3=C4C=CC(=CC4=NC=C3)C(F)(F)F [EHT 1864] + NC(=O)Nc1cc(-c2cccc(F)c2)sc1C(=O)N[C@H]1CCCNC1 [AZD7762] (partner 0.2 µM)
Procedure, shortened: (§1)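 Medians of duplicate plates are given as relative viability. That measure is the nuclei count in treated wells divided by the count in vehicle wells. Counts were taken on 4× images of lung cancer cell lines in 1536-well plates, 5 days after pin-tool dosing the day after seeding with one drug alone or a fixed anchor-drug dose plus five library-drug doses (not always all listed) in √10 steps.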

EHT 1864 + Pemetrexed = compound: C1COCCN1CC2=CC(=O)C(=CO2)OCCCCCSC3=C4C=CC(=CC4=NC=C3)C(F)(F)F [EHT 1864] + Nc1nc2[nH]cc(CCc3ccc(C(=O)N[C@@H](CCC(=O)O)C(=O)O)cc3)c2c(=O)[nH]1 [Pemetrexed] (partner 0.2 µM)
Procedure, shortened: as §1

EHT 1864 + Foretinib = compound: C1COCCN1CC2=CC(=O)C(=CO2)OCCCCCSC3=C4C=CC(=CC4=NC=C3)C(F)(F)F [EHT 1864] + COc1cc2c(Oc3ccc(NC(=O)C4(C(=O)Nc5ccc(F)cc5)CC4)cc3F)ccnc2cc1OCCCN1CCOCC1 [Foretinib] (partner 0.25 µM)
Procedure, shortened: as §1

EHT 1864 + OSI-027 = compound: C1COCCN1CC2=CC(=O)C(=CO2)OCCCCCSC3=C4C=CC(=CC4=NC=C3)C(F)(F)F [EHT 1864] + COc1cccc2cc(-c3nc([C@H]4CC[C@H](C(=O)O)CC4)n4ncnc(N)c34)[nH]c12 [OSI-027] (partner 0.5 µM)
Procedure, shortened: as §1

Cell Line | relative viability (EHT 1864 + AZD7762; first compound 0.04 µM) | relative viability (EHT 1864 + AZD7762; first compound 0.1265 µM) | relative viability (EHT 1864 + AZD7762; first compound 0.4 µM) | relative viability (EHT 1864 + AZD7762; first compound 1.265 µM) | relative viability (EHT 1864 + AZD7762; first compound 4 µM) | relative viability (EHT 1864 + Pemetrexed; first compound 0.04 µM) | relative viability (EHT 1864 + Pemetrexed; first compound 0.1265 µM) | relative viability (EHT 1864 + Pemetrexed; first compound 0.4 µM) | relative viability (EHT 1864 + Pemetrexed; first compound 1.265 µM) | relative viability (EHT 1864 + Pemetrexed; first compound 4 µM) | relative viability (EHT 1864 + Foretinib; first compound 0.04 µM) | relative viability (EHT 1864 + Foretinib; first compound 0.1265 µM) | relative viability (EHT 1864 + Foretinib; first compound 0.4 µM) | relative viability (EHT 1864 + Foretinib; first compound 1.265 µM) | relative viability (EHT 1864 + Foretinib; first compound 4 µM) | relative viability (EHT 1864 + OSI-027; first compound 0.04 µM) | relative viability (EHT 1864 + OSI-027; first compound 0.1265 µM) | relative viability (EHT 1864 + OSI-027; first compound 0.4 µM) | relative viability (EHT 1864 + OSI-027; first compound 1.265 µM) | relative viability (EHT 1864 + OSI-027; first compound 4 µM)
LXF-289 | 1.14 | 1.01 | 1.03 | 1.07 | 1.1 | 0.857 | 0.894 | 0.835 | 0.769 | 0.843 | 0.976 | 0.961 | 0.947 | 0.925 | 0.851 | 0.848 | 0.738 | 0.769 | 0.775 | 0.713
NCI-H460 | 0.642 | 0.541 | 0.635 | 0.436 | 0.568 | – | 0.0604 | 0.0667 | 0.0607 | 0.0677 | 1 | 0.921 | 1.01 | 1.01 | 0.853 | 0.678 | 0.576 | 0.649 | 0.621 | 0.552
NCI-H1395 | 0.394 | 0.37 | 0.389 | 0.437 | 0.436 | 0.923 | 0.73 | 0.89 | 0.805 | 0.915 | 1.03 | 0.924 | 0.897 | 1.02 | 0.859 | 0.649 | 0.515 | 0.683 | 0.621 | 0.696
NCI-H358 | 0.558 | 0.587 | 0.536 | 0.556 | 0.456 | 0.173 | 0.169 | 0.178 | 0.189 | 0.168 | 0.689 | 0.613 | 0.848 | 0.637 | 0.621 | 0.842 | 0.745 | 0.863 | 0.799 | 0.685
